# According to article PMC12751014, “Non-Catalytic Inhibitors of the p38/MK2 Interface: Repurposing Approved Drugs to Target Neuroinflammation in Alzheimer’s Disease” (Journal of Medicinal Chemistry, 2025):
# Entries after “also recorded” stand apart in the source; their conditions may differ.
# Tests used:
# p38/MK2 interaction [1] = molecular target: T1, p38/MK2 interaction (Homo sapiens, UniProt Q16539); assay: TR-FRET ultra-high-throughput screening (uHTS), 1536-well, HEK293T lysate VF-p38α / GST-MK2; format: binding; parameters: inhibition of p38/MK2 interaction, primary screen: concentration or dose not given beside the values
# p38α [2] = conditions: systematic kinase profiling; reference number not given; read-out: IC50, inhibition of p38α catalysis; cited from earlier work
# [3] = test system: human iPSC-derived microglia (iMGL); assay: qRT-PCR of LPS/IFNγ-induced TNF-α expression in iPSC-derived microglia (iMGL); format: cell-based; conditions: 5 μM compound 1 h before LPS/IFN-γ 24 h
# p38/MK2 interaction [4] = molecular target: T1, p38/MK2 interaction; assay: TR-FRET assay with purified recombinant His-p38 and GST-MK2; format: binding; conditions: side-by-side TR-FRET, 2h incubation
# Method: ENSG00000112062, UniProt ID: Q16539-1) was cloned into a pMCSG7 vector and transformed into Escherichia coli strain BL21(DE3). […] The resuspended cells were lysed through sonication. The lysate was centrifuged for 20 min at 70,000g at 4 °C and the clarified supernatant was passed through a gravity column containing 2 mL Ni-NTA resin pre-equilibrated with equilibration buffer. The resin was then washed with 25 column volumes of equilibration buffer supplemented with 40 mM imidazole, and the protein was eluted with equilibration buffer supplemented with 200 mM imidazole. […] The purity of the enzyme was verified by sodium dodecyl sulfate-polyacrylamide gel electrophoresis (SDS-PAGE) with Coomassie staining, aliquots flash frozen in liquid nitrogen, and stored at -80 °C.
# p38α [5] = conditions: systematic kinase profiling; reference number not given; read-out: K d for p38α; cited from earlier work
# HMC3 microglial cells = assay: qRT-PCR of LPS-induced cytokine expression in HMC3 microglial cells; format: cell-based, human; conditions: HMC3, 5 μM compound 1 h before 100 ng/mL LPS 4 h
# Method: HMC3 cells were treated with 100 ng/mL E. coli LPS (Sigma-Aldrich, catalog no. L4005) for 4 h in DMEM media. […] Following pretreatment, iMGLs were challenged with 100 ng/mL LPS and 20 ng/mL interferon-γ (IFN-γ) for 24 h to induce an inflammatory response. At the end of the stimulation, cell lysates were collected for qPCR analysis of TNF-α […] gene expression. Total RNA isolation from cell samples was conducted using the RNeasy Plus kit (Qiagen, catalog no. 74134) according to manufacturer instructions and treated with DNase I (Invitrogen, catalog no. 18068-015). Extracted RNA was quantified using the Nanodrop One Spectrophotometer (Thermo Scientific) and then reverse-transcribed into cDNA in equal quantity (<1000 ng/reaction) with the SuperScript III System (Invitrogen, catalog no. 18080-051) following manufacturer directions. cDNA sample was treated with RNase H (Invitrogen, catalog no. 18021014) and diluted to 4 ng/μL equivalent of the starting total RNA. qPCR was performed in 96-well PCR plates (BioRad, catalog no. HSP9601) using the Realplex4Mastercycler (Eppendorf). Each reaction well combines 5 μL cDNA sample, 10 μL 2X SYBR Green Supermix (BioRad, catalog no. 1725271), 1 μL 5 μM primer mix for each target gene, and nuclease-free water up to 20 μL. […] The primer sequences used were: TNFα forward [NT], reverse [NT]-6 forward [NT], reverse [NT]-1β forward [NT], reverse [NT] Each gene was expression-normalized against the housekeeping gene GAPDH with the primer sequences: forward [NT], reverse [NT] Primers were obtained from Integrated DNA Technologies in lyophilized form. The cycler program was set to denaturation at 95 °C for 15 s, followed by annealing and extension at 60 °C for 60 s, repeated for 40 PCR cycles. Melting curve analyses were performed for each sample to ensure primer specificity. The experiment was performed in biological quadruplicates and technical quadruplicates.
# [6] = molecular target: recombinant His-tagged p38 (Homo sapiens, UniProt Q16539)
# [7] = molecular target: T2, endogenous p38/MK2 complex (Homo sapiens, UniProt Q16539); assay: Co-immunoprecipitation of endogenous p38/MK2 complex in HMC3 cells; format: cell-based; conditions: HMC3 cell lysate
# T2 construct: endogenous in cells; host or cells: HMC3 (ATCC CRL-3304)
# Method: HMC3 cells were lysed with 1% NP-40 lysis buffer, as described above. Clear cell lysate was incubated with equilibrated MK2-Trap Agarose beads (ChromoTek, catalog no. mta-20) or Binding Control Agarose Beads (Chromotek, catalog no. bab-20) and compounds or DMSO at 4 °C for 2 h. Immunoprecipitates were washed three times with 1% NP-40 lysis buffer. Samples were boiled in 1X SDS-PAGE sample buffer (BioRad, catalog no. 1610747) for 5 min before analysis by Western blotting.
# Proteins in each sample were separated by SDS-PAGE at 200 V for 40 min using 12.5% acrylamide gels. Transfer to nitrocellulose membranes was completed using the Trans-Blot Turbo Transfer System (BioRad) in TBT buffer (BioRad, catalog no. 10026938). Thirty min incubation in 5% nonfat dry milk (BioRad, catalog no. 170–6404) in TBST buffer (20 mM Tris-base, 150 mM NaCl, and 0.05% Tween 20) at room temperature was used to block membranes. p38α MAPK mouse mAb (Cell Signaling Technology, catalog no. 9217) was used to blot the membrane at 4 °C overnight. […] The wash step was repeated, and the blot was imaged with a ChemiDoc imaging system (BioRad). The SuperSignal West Pico PLUS Chemiluminescent Substrate (Thermo Scientific, catalog no. 34580) was used for developing membranes. Blotting of MK2 was then started with the removal of p38α antibodies using a striping buffer (Thermal Scientific, catalog no. 46430). […]
# T1 sequence (Q16539 whole entry): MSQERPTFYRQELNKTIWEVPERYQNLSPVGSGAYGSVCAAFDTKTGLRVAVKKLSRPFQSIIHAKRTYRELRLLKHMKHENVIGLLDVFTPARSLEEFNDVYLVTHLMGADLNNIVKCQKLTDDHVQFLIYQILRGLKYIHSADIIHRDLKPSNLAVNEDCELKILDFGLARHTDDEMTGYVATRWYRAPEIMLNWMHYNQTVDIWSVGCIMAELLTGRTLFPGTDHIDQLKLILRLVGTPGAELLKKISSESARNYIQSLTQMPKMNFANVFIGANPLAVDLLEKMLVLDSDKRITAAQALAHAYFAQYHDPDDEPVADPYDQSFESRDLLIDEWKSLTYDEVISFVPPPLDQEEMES
# T2 sequence (Q16539 whole entry, one chain of several): as the sequence (Q16539 whole entry) above
# Sequence of recombinant His-tagged p38 (Q16539 whole entry): as above
smiles,measurement,setting,value
"Cc1cn(-c2cc(NC(=O)c3ccc(C)c(Nc4nccc(-c5cccnc5)n4)c3)cc(C(F)(F)F)c2)cn1 [Nilotinib, 4-methyl-N-[3-(4-methylimidazol-1-yl)-5-(trifluoromethyl)phenyl]-3-[(4-pyridin-3-ylpyrimidin-2-yl)amino]benzamide]","inhibition of p38/MK2 interaction, primary screen","p38/MK2 interaction [1]; relative to DMSO control, 1536-well",≥ 50%
same,Pct of control,"p38/MK2 interaction [1]; uHTS TR-FRET signal, Emory Enriched Library",8.91 Pct of control
same,IC50,p38α [2],~2200 nM
same,LPS/IFNγ-induced TNF-α expression,[3],suppresses; also recorded: suppression
same,maximal inhibition of p38/MK2 PPI,p38/MK2 interaction [4],~75%
same,Kd,p38α [5],100 nM
same,"LPS-induced TNF-α, IL-6, and IL-1β expression",HMC3 microglial cells,significantly (p-value <0.05) suppresses; also recorded: significantly reduced
same,ΔT max (thermal stabilization),[6],8.22 °C
same,endogenous p38/MK2 complex formation (co-IP),[7],disrupts the endogenous p38/MK2 complex
same,endogenous p38/MK2 complex formation (co-IP),[7]; listed as nilotinib,decreased p38/MK2 complex formation
